The source of these data is ChEMBL document CHEMBL4028862 (J Med Chem, 2017).

The structures appear in SMILES notation. Activity calls are given as the source filed them. The calls are words filed in the database; no cut-off is given here. Where only a bound is given, the exact number is not on record here.

Data set [1] addresses T1, Acid-sensing ion channel 3 (Rattus norvegicus, UniProt O35240).
T1 sequence (O35240 whole entry): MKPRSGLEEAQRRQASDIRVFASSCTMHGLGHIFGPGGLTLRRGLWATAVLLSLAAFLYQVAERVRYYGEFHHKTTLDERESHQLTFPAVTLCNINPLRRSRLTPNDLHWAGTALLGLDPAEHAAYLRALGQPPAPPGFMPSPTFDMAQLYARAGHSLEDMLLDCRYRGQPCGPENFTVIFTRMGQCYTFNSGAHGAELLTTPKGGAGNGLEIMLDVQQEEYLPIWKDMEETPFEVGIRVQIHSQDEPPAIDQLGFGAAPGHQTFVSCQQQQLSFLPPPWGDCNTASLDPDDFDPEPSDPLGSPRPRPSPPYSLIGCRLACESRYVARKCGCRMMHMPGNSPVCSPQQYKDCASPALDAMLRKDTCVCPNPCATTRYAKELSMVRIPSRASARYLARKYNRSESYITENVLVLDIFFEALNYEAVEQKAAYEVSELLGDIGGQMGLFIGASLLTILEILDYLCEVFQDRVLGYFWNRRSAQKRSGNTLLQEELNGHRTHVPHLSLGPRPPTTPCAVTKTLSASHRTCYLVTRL
The data set can be described thus: Inhibition of rat ASIC3 receptor expressed in xenopus lavies oocytes assessed as inhibition of pH 6.4-gated currents by two electrode voltage clamp. It is filed as cell-based. (Two-electrode voltage clamp holds a large cell at a set potential and records current.)

Data set [2] concerns the target T2, Acid-sensing ion channel 1 (Rattus norvegicus, UniProt P55926).
T2 sequence (P55926 whole entry): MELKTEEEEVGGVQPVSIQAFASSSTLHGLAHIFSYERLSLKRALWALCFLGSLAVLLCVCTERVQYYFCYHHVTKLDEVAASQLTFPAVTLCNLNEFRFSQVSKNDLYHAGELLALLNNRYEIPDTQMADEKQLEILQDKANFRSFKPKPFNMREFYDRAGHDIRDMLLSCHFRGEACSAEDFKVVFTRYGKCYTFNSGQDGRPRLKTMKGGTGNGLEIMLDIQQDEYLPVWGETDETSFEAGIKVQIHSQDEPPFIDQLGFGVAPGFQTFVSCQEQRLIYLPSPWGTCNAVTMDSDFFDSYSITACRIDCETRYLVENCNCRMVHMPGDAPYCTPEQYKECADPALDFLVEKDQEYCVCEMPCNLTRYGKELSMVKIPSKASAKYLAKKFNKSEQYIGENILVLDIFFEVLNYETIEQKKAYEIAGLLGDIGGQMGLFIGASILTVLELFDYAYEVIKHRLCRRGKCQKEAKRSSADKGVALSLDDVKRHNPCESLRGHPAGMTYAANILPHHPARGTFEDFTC
The data set can be described thus: Inhibition of rat ASIC1a receptor expressed in xenopus lavies oocytes assessed as inhibition of pH 6.7-gated currents by two electrode voltage clamp. It is filed as cell-based.

Data set [3] has as its target T3, Acid-sensing ion channel 1 (Rattus norvegicus) (UniProt P55926).
T3 sequence (whole entry): T2 sequence (P55926 whole entry)
As to the kind of experiment: Inhibition of rat ASIC1a receptor expressed in xenopus lavies oocytes at 0.03 to 3 mM at greater than pH 5 by two electrode voltage clamp. It is filed as cell-based.

Data set [4] addresses T3, Acid-sensing ion channel 1 (Rattus norvegicus). The data set can be described thus: Inhibition of rat ASIC1a receptor expressed in xenopus lavies oocytes at 0.1 to 3 mM at greater than pH 5 by two electrode voltage clamp. It is filed as cell-based.
Data set [5] is described as follows: Solubility of the compound in buffer at pH 4. It is filed as physicochemical.
The target in data set [6] is T3, Acid-sensing ion channel 1 (Rattus norvegicus).
Data set [7] can be described thus: Solubility of the compound in buffer at less than pH 5. It is filed as physicochemical.
A further data set is described as follows: cells. The note with it: Rattus norvegicus.

For `Cc1ccc(C(C)C(=O)O)cc1` (centres undefined), the IC50 in data set [1] is 708 µM; in data set [2], more than 10000 µM.
On to `CC(C)Cc1ccc(C(F)C(=O)O)cc1` (centres undefined), for which the IC50 in data set [1] was 891 µM; in data set [2], 955 µM.
For `CC(C)Cc1ccc(C(=O)O)cc1`, the inhibition result in data set [3] was “Active”. For the same compound, the IC50 in data set [1] was 302 µM; in data set [2], 417 µM.
In the case of `CC(C)Cc1ccc(C(C)[N+](=O)[O-])cc1` (centres undefined), the inhibition result in data set [4] is “inactive”.
Consider `CC(C(=O)O)c1ccc(-c2ccccc2)c(F)c1` (racemic) [FLURBIPROFEN], for which the IC50 in data set [1] is 229 µM; in data set [2], 170 µM.
Take `CC(C)Cc1ccc(C(C)C(=O)O)cc1` (racemic) [IBUPROFEN]: the solubility entry in data set [5] and in data set [7] was “Insoluble” throughout. The pH50 in data set [6] was 6.6. Also, the IC50 in the data set “cells” is 3000 µM; in the data set “cells” (read-out: pIC50 (converted)), 3160 µM.
Consider `CCC(C(=O)O)c1ccc(CC(C)C)cc1` (centres undefined) [BUTIBUFEN], for which the figures for the IC50 in data set [1] and in data set [2] were 288 µM and 182 µM, respectively.
For `CC(C)Cc1ccc(CC(=O)O)cc1` [IBUFENAC], the results for the IC50 in data set [1] and in data set [2] were 417 µM and 1020 µM, respectively.
